How the values were obtained:
Assay in all cases: relative viability (nuclei count vs DMSO), 5 days (fraction); higher = more cells survive
Entinostat + Crizotinib = compound: Nc1ccccc1NC(=O)c1ccc(CNC(=O)OCc2cccnc2)cc1 [Entinostat] + C[C@@H](Oc1cc(-c2cnn(C3CCNCC3)c2)cnc1N)c1c(Cl)ccc(F)c1Cl [Crizotinib] (partner 1 µM)
Procedure, shortened: (§1)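 Relative viability is defined as nuclei in treated wells over nuclei in vehicle wells. Duplicate plates were run and medians reported. Lung cancer cell lines in 1536-well plates were dosed by pin tool one day after seeding, with one drug or with a fixed anchor-drug dose plus five library-drug doses (not always all listed) in √10 steps, and nuclei were counted after 5 days.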

Entinostat + Palbociclib = compound: Nc1ccccc1NC(=O)c1ccc(CNC(=O)OCc2cccnc2)cc1 [Entinostat] + CC(=O)c1c(C)c2cnc(Nc3ccc(N4CCNCC4)cn3)nc2n(C2CCCC2)c1=O [Palbociclib] (partner 0.5 µM)
Procedure, shortened: as §1

[1] = compound: C1COCCN1C2=NC(=NC3=C2OC4=C3C=CC=N4)C5=CC(=CC=C5)NC(=O)C6=CN=C(C=C6)N + CS(=O)(=O)CCNCc1ccc(-c2ccc3ncnc(Nc4ccc(OCc5cccc(F)c5)c(Cl)c4)c3c2)o1 [Lapatinib] (partner 2 µM)
Procedure, shortened: as §1

Entinostat + Trametinib = compound: Nc1ccccc1NC(=O)c1ccc(CNC(=O)OCc2cccnc2)cc1 [Entinostat] + CC(=O)Nc1cccc(-n2c(=O)n(C3CC3)c(=O)c3c(Nc4ccc(I)cc4F)n(C)c(=O)c(C)c32)c1 [Trametinib] (partner 0.02 µM)
Procedure, shortened: as §1

Cell Line	relative viability (Entinostat + Crizotinib; first compound 0.02 µM)	relative viability (Entinostat + Crizotinib; first compound 0.06325 µM)	relative viability (Entinostat + Crizotinib; first compound 0.2 µM)	relative viability (Entinostat + Crizotinib; first compound 0.6325 µM)	relative viability (Entinostat + Crizotinib; first compound 2 µM)	relative viability (Entinostat + Palbociclib; first compound 0.02 µM)	relative viability (Entinostat + Palbociclib; first compound 0.06325 µM)	relative viability (Entinostat + Palbociclib; first compound 0.2 µM)	relative viability (Entinostat + Palbociclib; first compound 0.6325 µM)	relative viability (Entinostat + Palbociclib; first compound 2 µM)	relative viability ([1]; first compound 0.02 µM)	relative viability ([1]; first compound 0.06325 µM)	relative viability ([1]; first compound 0.2 µM)	relative viability ([1]; first compound 0.6325 µM)	relative viability ([1]; first compound 2 µM)	relative viability (Entinostat + Trametinib; first compound 0.02 µM)	relative viability (Entinostat + Trametinib; first compound 0.06325 µM)	relative viability (Entinostat + Trametinib; first compound 0.2 µM)	relative viability (Entinostat + Trametinib; first compound 0.6325 µM)	relative viability (Entinostat + Trametinib; first compound 2 µM)
ABC-1	0.925	1.24	1.17	0.814	0.28	0.591	0.788	0.61	0.658	0.41	1.38	1.14	1.07	1.21	0.871					
LC-2-ad	0.521	0.4	0.36	0.296	0.241	0.473	0.412	0.417	0.421	0.323	0.948	0.939	0.968	1.03	0.537	0.894	0.883	0.83	0.698	0.479
NCI-H441	0.715	0.744	0.523	0.215	0.181	0.218	0.231	0.238	0.171	0.129						0.498	0.687	0.568	0.227	0.147
NCI-H1915	0.854	0.869	0.862	0.739	0.328	0.51	0.494	0.43	0.383	0.208	0.955	1.04	1.03	1.01	0.443	0.314	0.311	0.289	0.246	0.229
NCI-H1299	0.904	0.925	0.91	0.767	0.561						0.929	0.953	0.954	0.975	0.691					
HCC-827	0.868	0.889	0.699	0.559	0.384	0.407	0.436	0.336	0.311	0.184	0.172	0.214	0.254	0.186	0.21	0.516	0.474	0.406	0.338	0.203
EMC-BAC-2	0.812	0.702	0.708	0.522	0.368	0.532	0.468	0.443	0.388	0.294	0.932	0.931	0.94	0.897	0.733	0.868	0.713	0.578	0.489	0.383
NCI-H596	1	0.982	0.992	0.978	0.52						0.997	1.04	1	0.997	0.765	0.748	0.638	0.807	0.649	0.459
NCI-H1792	0.979	1.04	0.86	0.796	0.569	0.709	0.745	0.723	0.626	0.523	0.882	0.904	0.874	0.925	0.376	0.479	0.431	0.366	0.442	0.155
NCI-H2009	0.984	1.06	0.965	0.877	0.556	0.189	0.301	0.187	0.253	0.214	0.933	0.944	0.889	0.89	0.792	0.312	0.354	0.325	0.294	0.238
NCI-H2347	0.686	0.581	0.653	0.5	0.408	0.48	0.387	0.361	0.339	0.261	0.993	0.787	0.929	0.944	0.933	0.254	0.273	0.218	0.205	0.222
SW 900						0.547	0.582	0.576	0.509	0.344						0.793	0.752	0.614	0.766	0.347
NCI-H1563	0.781	0.907	0.759	0.711	0.735						0.906	0.82	0.857	0.72	0.719					
Calu-6	0.738	0.713	0.755	0.494	0.317						1.3	1.1	1.12	0.98	0.742					
NCI-H1395						0.602	0.773	0.802	0.603	0.523	0.782	1.13	0.91	0.983	0.831	1.08	1.09	0.977	0.79	0.699
EBC-1	0.177	0.191	0.215	0.202	0.159						0.178	0.212	0.216	0.17	0.268					
NCI-H2342						0.528	0.523	0.53	0.49	0.485						0.855	0.659	0.713	0.605	0.673
NCI-H1703	0.674	0.786	0.884	0.415	0.358						1.17	1.21	0.761	0.798	0.308					
ChaGo-K-1	1.18	1.19	0.967	0.966	0.631	0.976	0.931	0.989	0.852	0.75						0.948	0.933	0.897	0.785	0.64
IA-LM	0.731	0.855	0.928	0.728	0.651						0.848	0.67	0.621	0.588	0.276					
NCI-H1648						0.297	0.25	0.259	0.247	0.258						0.507	0.682	0.436	0.653	0.472
NCI-H522						1.01	1.15	1.13	1.01	0.97						0.812	0.966	0.799	0.844	0.841
A549	0.775	0.863	0.743	0.449	0.111						1.07	0.925	0.911	0.921	0.468					
